What was measured:
Test in all cases: relative viability (nuclei count vs DMSO), 5 days (fraction); higher = more cells survive
Sulindac = compound: CC1=C(CC(=O)O)c2cc(F)ccc2/C1=C\c1ccc([S+](C)[O-])cc1 [Sulindac]
Summary of the method: (§1)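 MetaXpress counted nuclei in 4× images of lung cancer cell lines that had been fixed, permeabilised and Hoechst-stained in one step. Before that, cells in 1536-well plates were kept overnight at 37 °C, pinned with five √10-spaced library-drug doses on vehicle-anchored plates, and cultured 5 days without medium change. Viability takes treated-well nuclei over vehicle-well nuclei and uses the median across plates. Plates were accepted only at control CV below 25% and at least one doubling.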

Staurosporine = compound: CN[C@@H]1C[C@H]2O[C@@](C)([C@@H]1OC)n1c3ccccc3c3c4c(c5c6ccccc6n2c5c31)C(=O)NC4 [Staurosporine]
Summary of the method: as §1

5-Fluorouracil = compound: O=c1[nH]cc(F)c(=O)[nH]1 [5-Fluorouracil]
Summary of the method: as §1

Row | Cell Line | relative viability (Sulindac; 0.08 µM) | relative viability (Sulindac; 0.253 µM) | relative viability (Sulindac; 0.8 µM) | relative viability (Sulindac; 2.53 µM) | relative viability (Sulindac; 8 µM) | relative viability (Staurosporine; 0.005 µM) | relative viability (Staurosporine; 0.01581 µM) | relative viability (Staurosporine; 0.05 µM) | relative viability (Staurosporine; 0.1581 µM) | relative viability (Staurosporine; 0.5 µM) | relative viability (5-Fluorouracil; 0.02 µM) | relative viability (5-Fluorouracil; 0.2 µM) | relative viability (5-Fluorouracil; 0.6325 µM) | relative viability (5-Fluorouracil; 2 µM)
1 | NCI-H1648 | 0.953 | 0.793 | 0.561 | 0.923 | 0.942 | 0.807 | 0.281 | 0.244 | 0.324 | 0.274 | 0.922 | 0.871 | 0.56 | 0.354
2 | NCI-H1650 | 0.851 | 1.1 | 0.732 | 0.942 | 1.01 | 0.684 | 0.372 | 0.314 | 0.15 | 0.0851 | 0.814 | 0.878 | 0.564 | 0.343
3 | NCI-H1651 | 1.04 | 1.04 | 0.771 | 1.01 | 1.02 | 1.02 | 0.751 | 0.548 | 0.357 | 0.285 | 1.04 | 0.896 | 0.504 | 0.458
4 | NCI-H1666 | 0.906 | 0.978 | 0.886 | 0.982 | 1.08 | 0.7 | 0.68 | 0.557 | 0.484 | 0.373 | 1.04 | 0.683 | 0.503 | 0.479
5 | NCI-H1703 | 1.11 | 1 | 0.915 | 0.917 | 1.26 | 0.512 | 0.291 | 0.186 | 0.161 | 0.112 | 1.17 | 0.999 | 0.848 | 0.562
6 | NCI-H1734 | 1.17 | 1 | 0.787 | 0.991 | 1.07 | 0.899 | 0.375 | 0.291 | 0.151 | 0.113 | 0.93 | 1.08 | 0.859 | 0.461
7 | NCI-H1755 | 1.1 | 1.09 | 1.01 | 1.08 | 1.06 | 0.829 | 0.47 | 0.319 | 0.191 | 0.213 | 1.02 | 0.994 | 0.356 | 0.304
8 | NCI-H1792 | 1.19 | 1.08 |  | 1.07 | 1.09 | 0.536 | 0.251 | 0.235 | 0.173 | 0.177 | 0.975 | 0.851 | 0.278 | 0.344
9 | NCI-H1793 | 0.904 | 0.993 | 0.722 | 0.953 | 0.908 | 0.921 |  | 0.628 | 0.205 | 0.152 | 0.968 | 1.18 | 0.985 | 0.554
10 | NCI-H1915 | 1.13 | 1.09 | 0.878 | 0.965 | 1.03 | 0.944 | 0.119 | 0.406 | 0.18 | 0.118 | 0.818 | 0.986 | 0.956 | 0.779
11 | NCI-H1944 | 0.997 | 1.03 | 0.908 | 0.904 | 1.11 | 0.983 | 0.699 | 0.567 | 0.353 | 0.246 | 0.91 | 0.905 | 0.293 | 0.195
12 | NCI-H1975 | 1.09 | 0.969 | 0.795 | 0.998 | 1.07 | 0.475 | 0.365 | 0.258 | 0.159 | 0.136 | 0.968 | 1.07 | 0.566 | 0.343
13 | NCI-H1993 | 0.923 | 0.867 | 0.82 | 0.83 | 0.953 | 1.02 | 0.537 | 0.57 | 0.458 | 0.329 | 1.01 | 0.665 | 0.672 | 0.749
14 | NCI-H2009 | 1.1 | 1.08 | 0.972 | 1 | 1.11 | 0.452 | 0.227 | 0.231 | 0.167 | 0.109 | 1.1 | 1.02 | 0.82 | 0.652
15 | NCI-H2023 | 1.39 | 1.05 | 0.744 | 1.01 | 1.13 | 0.471 | 0.289 | 0.178 | 0.0889 | 0.0533 | 0.849 | 0.227 | 0.133 | 0.0914
16 | NCI-H2085 | 0.919 | 1 | 0.891 | 0.971 | 1.04 | 0.833 | 0.586 | 0.624 | 0.361 | 0.285 | 0.931 | 1.02 | 0.989 | 0.813

Row | Cell Line | relative viability (Sulindac; 0.08 µM) | relative viability (Sulindac; 0.253 µM) | relative viability (Sulindac; 0.8 µM) | relative viability (Sulindac; 2.53 µM) | relative viability (Sulindac; 8 µM) | relative viability (Staurosporine; 0.005 µM) | relative viability (Staurosporine; 0.01581 µM) | relative viability (Staurosporine; 0.05 µM) | relative viability (Staurosporine; 0.1581 µM) | relative viability (Staurosporine; 0.5 µM) | relative viability (5-Fluorouracil; 0.02 µM) | relative viability (5-Fluorouracil; 0.2 µM) | relative viability (5-Fluorouracil; 0.6325 µM) | relative viability (5-Fluorouracil; 2 µM)
17 | NCI-H2087 | 1.05 | 1.13 | 0.954 | 1.05 | 1.28 | 0.927 | 0.561 | 0.243 | 0.0918 | 0.0911 | 0.992 | 1.02 | 0.688 | 0.571
18 | NCI-H2126 | 0.975 | 1.01 | 0.842 | 1.03 | 1.05 | 0.875 | 0.397 | 0.582 | 0.391 | 0.303 | 0.915 | 0.532 | 0.356 | 0.351
19 | NCI-H2170 | 1.13 | 1.03 | 0.884 | 1.06 | 0.991 | 1.07 |  | 0.766 | 0.384 | 0.161 | 1.02 | 0.88 | 0.529 | 0.464
20 | NCI-H2228 | 1.2 | 1.08 | 0.916 | 1.03 | 1.18 | 0.735 | 0.471 | 0.407 | 0.145 | 0.107 | 0.976 | 1.02 | 0.75 | 0.458
21 | NCI-H2342 | 0.912 | 0.946 | 0.843 | 0.99 | 0.99 | 1.09 | 0.652 | 0.525 | 0.461 | 0.36 | 0.955 | 1.02 | 0.894 | 0.783
22 | NCI-H2347 | 1.01 | 1.06 | 0.759 | 1.03 | 1.11 | 0.706 | 0.524 | 0.457 | 0.391 | 0.376 | 0.928 | 0.834 | 0.49 | 0.448
23 | NCI-H2405 | 1.05 | 1.09 | 0.958 | 0.944 | 1.16 |  | 0.209 | 0.158 | 0.13 | 0.118 | 1.01 | 1.17 | 0.956 | 0.75
24 | NCI-H3122 | 1.04 | 1.03 | 0.949 | 0.962 | 1.08 | 1.04 |  | 0.893 | 0.255 | 0.357 | 1 | 0.848 | 0.39 | 0.241
25 | PC-3 [JPC-3] | 1.16 | 1.03 | 0.926 | 1.02 | 1.12 | 1.02 | 0.36 | 0.698 | 0.384 | 0.317 | 0.967 | 1.1 | 0.954 | 0.743
26 | PC-14 | 1.11 | 1.14 | 0.786 | 1.08 | 1.18 | 0.691 | 0.404 | 0.152 | 0.0788 | 0.0565 | 1.02 | 1.13 | 0.898 | 0.552
27 | RERF-LC-KJ | 1.09 | 1.09 | 0.814 | 1.06 | 1.02 | 0.95 | 0.682 | 0.501 | 0.237 | 0.211 | 1.05 | 0.912 | 0.975 | 0.828
28 | SK-LU-1 | 1.21 | 1.12 | 0.805 | 0.975 | 1.28 | 0.704 | 0.274 | 0.191 | 0.207 | 0.165 | 0.996 | 1.1 | 0.968 | 0.83
29 | SK-MES-1 | 1.18 | 1.14 | 0.818 | 1.08 | 1.1 | 0.572 | 0.334 | 0.213 | 0.217 | 0.127 | 1.04 | 0.634 | 0.364 | 0.316
30 | SW 900 | 0.644 | 0.939 |  | 0.601 | 0.928 | 0.624 | 0.368 | 0.297 | 0.19 | 0.102 | 0.693 | 0.883 | 0.859 | 0.476
31 | SW 1573 | 1.05 | 1.09 | 0.861 | 0.999 | 1.21 | 0.622 | 0.277 | 0.187 | 0.137 | 0.076 | 1.01 | 1.03 | 0.938 | 0.532
